Source: US10233195B2, “Anti-fibrotic pyridinones” (InterMune, Inc., priority 2014, dated 2019)
pEC50, pIC50: −log10 of the molar value.

How the values were obtained:
[1] = system: TGF-b induced Endothelin-1 production; assay: ET-1 assay: inhibitory effect on TGF-b induced endothelin-1 production; format: cell-based; settings: Homo sapiens, Fibroblast; fibroblasts, stimulant (TGFb, serum, LPA etc), ET-1 in media by ELISA, 4-parameter fit
Summary of the method: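 Fibroblasts (primary human lung/dermal, HFL-1, 3T3) serum-starved 0-48 h, preincubated ~30 min with compound, then stimulated (TGFb, serum or LPA) for 16-48 h. Secreted ET-1 measured by ELISA; EC50 from 4-parameter logistic fit, with CC50 from ATPlite in the same wells.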

[2] = system: Fibroblasts (primary human lung and dermal, HFL-1, 3T3 etc); assay: Cell proliferation assay (BrdU incorporation); format: cell-based; settings: HFL1, stimulant (LPA, TGFb, serum etc), 50% inhibition of the increase of BrdU incorporation
Summary of the method: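 Serum-starved (24-48 h) fibroblasts pretreated with compound 0-30 min, then stimulated (LPA, TGFb, serum etc) for 16-24 h before BrdU, labelled a further 8 h. BrdU incorporation read by ELISA at 450 nm; IC50 taken as 50% inhibition of the stimulant-induced increase over unstimulated wells.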

| Structure (SMILES) | pEC50 [1] | pIC50 [2] |
| --- | --- | --- |
| O=c1c2c(ccn2C2CC2)c(-c2cn[nH]c2)cn1-c1ccc(OC(F)(F)F)cc1 [Compound 650] | > 4.30 | > 4.30 |
| COCCn1ccc2c(-c3cnn(C)c3)cn(-c3ccc(OC(F)(F)F)cc3)c(=O)c21 [Compound 651] | > 4.30 | > 4.30 |
| CCn1cc2c(-c3cnn(C)c3)cn(-c3ccc(OC(F)(F)F)cc3)c(=O)c2n1 [Compound 657] | > 4.30 | > 4.30 |
| Cn1cc(-c2cn(-c3ccc(OC(F)(F)F)cc3)c(=O)c3c2ncn3C)cn1 [Compound 665] | > 4.30 | 3.70 to 4.30 |
| O=c1c2[nH]nnc2c(-c2ccc(F)cc2)cn1-c1ccc(OC(F)(F)F)cc1 [Compound 681] | 3.70 to 4.30 | > 4.30 |
| CCn1nnc2c(=O)n(-c3ccc(OC(F)(F)F)cc3)cc(-c3ccc(F)cc3)c21 [Compound 682] | > 4.30 | > 4.30 |
| CCn1nnc2c(-c3ccc(F)cc3)cn(-c3ccc(OC(F)(F)F)cc3)c(=O)c21 [Compound 683] | > 4.30 | > 4.30 |
| Cn1cc(-c2cn(-c3ccc(OC(F)(F)F)cc3)c(=O)c3c2nnn3CCF)cn1 [Compound 684] | 3.70 to 4.30 | > 4.30 |
| CCOc1ccc(-n2cc(-c3ccnnc3)c3nn(CC)nc3c2=O)c(C)c1 [Compound 685] | > 4.30 | > 4.30 |
| CCOc1ccc(-n2cc(-c3cnn(C)c3)c3nn(CC)nc3c2=O)c(C)c1 [Compound 686] | 3.70 to 4.30 | > 4.30 |
| Cn1cc(-c2cn(-c3ccc(OC(F)(F)F)cc3)c(=O)c3nnn(CCF)c23)cn1 [Compound 687] | > 4.30 | > 4.30 |
| CCn1nc2c(-c3cnn(C)c3)cn(-c3ccc(OCCOC)cc3)c(=O)c2n1 [Compound 688] | 3.70 to 4.30 | 3.70 to 4.30 |
| O=c1c2[nH]ncc2c(-c2ccc(F)cc2)cn1-c1ccc(OC(F)(F)F)cc1 [Compound 689] | > 4.30 | > 4.30 |
| Cc1nc2c(-c3cnn(C)c3)cn(-c3ccc(OC(F)(F)F)cc3)c(=O)c2s1 [compound 584] | > 4.30 | > 4.30 |
